According to ChEMBL document CHEMBL1128388, “Ocular delivery of the beta-adrenergic antagonist alprenolol by sequential bioactivation of its methoxime analogue” (J Med Chem, 1995):
The source made the active and inactive calls. The calls are words filed in the database; no cut-off is given here.

Tests used:
[1] = tested on: Oryctolagus cuniculus; test: Average IOP after administration was determined; type: functional
[2] = tested on: Oryctolagus cuniculus; test: Compound was tested for decrease in IOP for 2-3 h (in vivo); Significant reduction was observed; type: functional, organism-based
[3] = tested on: Oryctolagus cuniculus; test: Compound was tested for decrease in IOP (in vivo); 18% reduction of the control 21.4+/-0.3 mmHg; type: functional
[4] = Time within which only 10% of the drug was degraded; type: ADME; settings: pH 4.50, room temperature

Structure (SMILES) | Average IOP [1] [mmHg] | Activity [2] | Activity [3] [mmHg] | t0.9 [4] [days]
C=CCc1ccccc1OCC(O)CNC(C)C (configuration not stated) [ALPRENOLOL] | 20.6 | Active |  | 
C=CCc1ccccc1OC/C(CNC(C)C)=N\OC | 21.4 |  | 3.8 | 75
C=CCc1ccccc1OC/C(CNC(C)C)=N\O | 21.8 |  |  | 44
